Data taken from the supplement of paper PMC10307832.

Assays:
Assay in all cases: relative viability (nuclei count vs DMSO), 5 days (fraction); higher = more cells survive
[1] = test system: LU99A
Outline: (§1)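 Values are medians from duplicate plates. Each reflects relative viability, defined as the nuclei count of treated wells over that of vehicle wells. Lung cancer cell lines in 1536-well plates were pin-tool dosed one day after seeding with one drug alone or with a fixed anchor-drug dose plus five library-drug doses (not always all listed) in √10 steps, then fixed, stained and imaged at 4× after 5 days.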

[2] = test system: NCI-H1437
Outline: as §1

[3] = test system: NCI-H441
Outline: as §1

[4] = test system: LK-2
Outline: as §1

[5] = test system: ABC-1
Outline: as §1

[6] = test system: EKVX
Outline: as §1

[7] = test system: COR-L 105
Outline: as §1

[8] = test system: NCI-H838
Outline: as §1

[9] = test system: BEN
Outline: as §1

[10] = test system: HARA
Outline: as §1

[11] = test system: NCI-H1666
Outline: as §1

[12] = test system: 201T
Outline: as §1

[13] = test system: NCI-H1650
Outline: as §1

[14] = test system: PC-14
Outline: as §1

[15] = test system: CAL-12T
Outline: as §1

[16] = test system: NCI-H2009
Outline: as §1

[17] = test system: SW 900
Outline: as §1

[18] = test system: NCI-H661
Outline: as §1

[19] = test system: COR-L23
Outline: as §1

[20] = test system: NCI-H3122
Outline: as §1

[21] = test system: NCI-H727
Outline: as §1

[22] = test system: HCC-366
Outline: as §1

[23] = test system: NCI-H2170
Outline: as §1

## O=C(O)c1ccc(-c2c[nH]c3ncc(-c4ccccc4)cc23)cc1C1CCCC1 + COc1cccc2cc(-c3nc([C@H]4CC[C@H](C(=O)O)CC4)n4ncnc(N)c34)[nH]c12 [OSI-027] (partner 0.5 µM)
[1]; first compound 0.04 µM
  relative viability: 0.314
[1]; first compound 0.1265 µM
  relative viability: 0.309
[1]; first compound 0.4 µM
  relative viability: 0.364
[1]; first compound 1.265 µM
  relative viability: 0.3
[2]; first compound 0.04 µM
  relative viability: 0.898
[2]; first compound 0.1265 µM
  relative viability: 0.926
[2]; first compound 0.4 µM
  relative viability: 1.01
[2]; first compound 1.265 µM
  relative viability: 0.565
[3]; first compound 0.04 µM
  relative viability: 0.675
[3]; first compound 0.1265 µM
  relative viability: 0.567
[3]; first compound 0.4 µM
  relative viability: 0.571
[3]; first compound 1.265 µM
  relative viability: 0.466
[4]; first compound 0.04 µM
  relative viability: 0.202
[4]; first compound 0.1265 µM
  relative viability: 0.23
[4]; first compound 0.4 µM
  relative viability: 0.165
[4]; first compound 1.265 µM
  relative viability: 0.195
[5]; first compound 0.04 µM
  relative viability: 0.468
[5]; first compound 0.1265 µM
  relative viability: 0.511
[5]; first compound 0.4 µM
  relative viability: 0.418
[5]; first compound 1.265 µM
  relative viability: 0.568
[6]; first compound 0.04 µM
  relative viability: 0.736
[6]; first compound 0.1265 µM
  relative viability: 0.828
[6]; first compound 0.4 µM
  relative viability: 0.727
[6]; first compound 1.265 µM
  relative viability: 0.587
[7]; first compound 0.04 µM
  relative viability: 0.635
[7]; first compound 0.1265 µM
  relative viability: 0.673
[7]; first compound 0.4 µM
  relative viability: 0.757
[7]; first compound 1.265 µM
  relative viability: 0.838
[8]; first compound 0.04 µM
  relative viability: 0.322
[8]; first compound 0.1265 µM
  relative viability: 0.452
[8]; first compound 0.4 µM
  relative viability: 0.4
[8]; first compound 1.265 µM
  relative viability: 0.358
[9]; first compound 0.04 µM
  relative viability: 0.329
[9]; first compound 0.1265 µM
  relative viability: 0.269
[9]; first compound 0.4 µM
  relative viability: 0.307
[9]; first compound 1.265 µM
  relative viability: 0.284
[10]; first compound 0.04 µM
  relative viability: 0.463
[10]; first compound 0.1265 µM
  relative viability: 0.733
[10]; first compound 0.4 µM
  relative viability: 0.55
[10]; first compound 1.265 µM
  relative viability: 0.591
[11]; first compound 0.04 µM
  relative viability: 0.846
[11]; first compound 0.1265 µM
  relative viability: 0.884
[11]; first compound 0.4 µM
  relative viability: 0.906
[11]; first compound 1.265 µM
  relative viability: 0.624
[12]; first compound 0.04 µM
  relative viability: 0.693
[12]; first compound 0.1265 µM
  relative viability: 0.682
[12]; first compound 1.265 µM
  relative viability: 0.716
[13]; first compound 0.04 µM
  relative viability: 0.544
[13]; first compound 0.1265 µM
  relative viability: 0.624
[13]; first compound 0.4 µM
  relative viability: 0.624
[13]; first compound 1.265 µM
  relative viability: 0.394
[14]; first compound 0.04 µM
  relative viability: 0.759
[14]; first compound 0.1265 µM
  relative viability: 0.86
[14]; first compound 0.4 µM
  relative viability: 0.826
[14]; first compound 1.265 µM
  relative viability: 0.877
[15]; first compound 0.04 µM
  relative viability: 0.63
[15]; first compound 0.1265 µM
  relative viability: 0.751
[15]; first compound 0.4 µM
  relative viability: 0.671
[15]; first compound 1.265 µM
  relative viability: 0.547
[16]; first compound 0.04 µM
  relative viability: 0.69
[16]; first compound 0.1265 µM
  relative viability: 0.687
[16]; first compound 0.4 µM
  relative viability: 0.648
[16]; first compound 1.265 µM
  relative viability: 0.549
[17]; first compound 0.04 µM
  relative viability: 0.696
[17]; first compound 0.1265 µM
  relative viability: 0.493
[17]; first compound 0.4 µM
  relative viability: 0.631
[17]; first compound 1.265 µM
  relative viability: 0.595
[18]; first compound 0.04 µM
  relative viability: 0.766
[18]; first compound 0.4 µM
  relative viability: 0.718
[18]; first compound 1.265 µM
  relative viability: 0.734
[19]; first compound 0.04 µM
  relative viability: 0.763
[19]; first compound 0.1265 µM
  relative viability: 0.876
[19]; first compound 0.4 µM
  relative viability: 0.701
[19]; first compound 1.265 µM
  relative viability: 0.511
[20]; first compound 0.04 µM
  relative viability: 0.973
[20]; first compound 0.1265 µM
  relative viability: 1.12
[20]; first compound 0.4 µM
  relative viability: 0.922
[20]; first compound 1.265 µM
  relative viability: 0.717
[21]; first compound 0.04 µM
  relative viability: 0.678
[21]; first compound 0.1265 µM
  relative viability: 0.672
[21]; first compound 0.4 µM
  relative viability: 0.887
[21]; first compound 1.265 µM
  relative viability: 0.667
[22]; first compound 0.04 µM
  relative viability: 1.17
[22]; first compound 0.1265 µM
  relative viability: 0.849
[22]; first compound 0.4 µM
  relative viability: 0.966
[22]; first compound 1.265 µM
  relative viability: 0.994
[23]; first compound 0.04 µM
  relative viability: 0.734
[23]; first compound 0.1265 µM
  relative viability: 0.685
[23]; first compound 0.4 µM
  relative viability: 0.703
[23]; first compound 1.265 µM
  relative viability: 0.676
